According to the supplement of paper PMC10331698:
± gives the standard deviation of the averaged measurements.

Columns and labels:
Assay in all cases: level (log10 ratio to DMSO vehicle control); higher = higher biomarker level / cell amount than vehicle control
Settings in all cases: in DMSO
[1] = compound: FC(F)(F)C(F)(F)C(F)(F)C(F)(F)C(F)(F)C(F)(F)CC1CO1 [3-(Perfluorohexyl)-1,2-epoxypropane]
Experimental: (§1)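 BioMAP Diversity Plus panel of 12 human primary cell co-culture systems (3C, 4H, LPS, SAg, BT, BF4T, BE3C, CASM3C, HDF3CGF, KF3CT, MyoF, Mphg). Compounds were added 1 h before stimulation and left for 24 h (MyoF 48 h; BT 72 h for soluble read-outs or 6 d for IgG). Biomarkers were read by ELISA, cytotoxicity by SRB, PBMC viability and proliferation by Alamar Blue. Each well value was divided by the mean of 8 DMSO control wells on the same plate and log10 transformed; duplicate blinded samples were tested at 4 concentrations.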

[2] = compound: COC(=O)C(F)(F)C(F)(F)OC(F)(C(F)(F)F)C(F)(F)OC(F)=C(F)F [Methyl perfluoro(3-(1-ethenyloxypropan-2-yloxy)propanoate)]
Experimental: as §1

[3] = compound: O=S(=O)(Cl)C(F)(F)C(F)(F)C(F)(F)C(F)(F)C(F)(F)C(F)(F)C(F)(F)C(F)(F)F [Perfluoro-1-octanesulfonyl chloride]
Experimental: as §1

[4] = compound: O=S(=O)(F)C(F)(F)C(F)(F)C(F)(F)C(F)(F)C(F)(F)C(F)(F)C(F)(F)C(F)(F)F [Perfluorooctanesulfonyl fluoride]
Experimental: as §1

[5] = compound: O=S(=O)(O)C(F)(F)C(F)(F)C(F)(F)C(F)(F)C(F)(F)C(F)(F)C(F)(F)C(F)(F)C(F)(F)C(F)(F)F [Sodium perfluorodecanesulfonate]
Experimental: as §1

[6] = compound: NS(=O)(=O)C(F)(F)C(F)(F)C(F)(F)C(F)(F)C(F)(F)C(F)(F)F [Perfluorohexanesulfonamide]
Experimental: as §1

Row | Test System | level (log10) ([1]; 6700 nM) | level (log10) ([1]; 20000 nM) | level (log10) ([1]; 60000 nM) | level (log10) ([2]; 6700 nM) | level (log10) ([2]; 20000 nM) | level (log10) ([3]; 6700 nM) | level (log10) ([3]; 20000 nM) | level (log10) ([3]; 60000 nM) | level (log10) ([4]; 6700 nM) | level (log10) ([4]; 20000 nM) | level (log10) ([4]; 60000 nM) | level (log10) ([5]; 1500 nM) | level (log10) ([5]; 4400 nM) | level (log10) ([5]; 13000 nM) | level (log10) ([5]; 40000 nM) | level (log10) ([6]; 6700 nM) | level (log10) ([6]; 20000 nM) | level (log10) ([6]; 60000 nM)
1 | BT:sIL-17A | -0.0215 ± 0.057 | -0.0315 ± 0.12 | -0.041 ± 0.11 | 0.033 ± 0.018 | 0.061 ± 0.17 | -0.0095 ± 0.08 | 0.0335 ± 0.071 | -0.084 ± 0.15 | -0.047 ± 0.098 | -0.176 ± 0.021 | -0.112 ± 0.021 | 0.0435 ± 0.16 | 0.057 ± 0.17 | 0.052 ± 0.3 | -0.0495 ± 0.11 | -0.155 ± 0.069 | -0.072 ± 0.069 | -0.026 ± 0.051
2 | SAg:CD69 | 0.013 ± 0.0042 | 0.011 ± 0.011 | 0.0035 ± 0.00071 | -0.0375 ± 0.0092 | -0.0735 ± 0.033 | -0.011 ± 0.0099 | -0.049 ± 0.04 | -0.0795 ± 0.049 | -0.0215 ± 0.0064 | -0.0105 ± 0.0064 | -0.0195 ± 0.0035 | 0.007 ± 0.011 | -0.0425 ± 0.015 | -0.0215 ± 0.00071 | -0.111 ± 0.0042 | -0.028 ± 0.017 | -0.0725 ± 0.019 | -0.217 ± 0.02
3 | SAg:SRB | -0.007 ± 0.0099 | -0.012 ± 0.0042 | 0.006 ± 0.016 | 0.0035 ± 0.015 | 0.006 ± 0.0057 | -0.001 ± 0.0042 | -0.0045 ± 0.011 | -0.107 ± 0.033 | 0.0055 ± 0.0064 | 0.0005 ± 0.0021 | 0.0015 ± 0.0035 | -0.002 ± 0.0057 | -0.0015 ± 0.00071 | -0.016 ± 0.0014 | -0.078 ± 0.0042 | -0.003 ± 0.0028 | -0.001 ± 0.0028 | -0.094 ± 0.021
4 | LPS:CD62E/E-Selectin | -0.0055 ± 0.029 | 0 ± 0.0042 | 0.0165 ± 0.026 | -0.0165 ± 0.0035 | -0.0085 ± 0.00071 | -0.0105 ± 0.0078 | -0.0095 ± 0.00071 | 0.0585 ± 0.016 | 0.008 ± 0.0028 | 0.0015 ± 0.0064 | -0.002 ± 0.011 | -0.019 ± 0.02 | -0.045 ± 0.059 | -0.0425 ± 0.069 | -0.084 ± 0.076 | -0.002 ± 0.0099 | -0.0295 ± 0.012 | -0.0815 ± 0.011
5 | BE3C:CXCL10/IP-10 | 0.001 ± 0.0057 | 0.001 ± 0.017 | 0.018 ± 0.0014 | -0.02 ± 0.013 | -0.054 ± 0.013 | -0.0275 ± 0.0064 | -0.165 ± 0.033 | -0.927 ± 0.04 | 0.0095 ± 0.035 | 0.0115 ± 0.025 | 0.008 ± 0.03 | -0.0045 ± 0.029 | -0.0165 ± 0.0021 | -0.076 ± 0.0042 | -0.201 ± 0.013 | -0.016 ± 0.04 | -0.086 ± 0.042 | -0.235 ± 0.047
6 | BT:sIL-2 | -0.0165 ± 0.049 | 0.0215 ± 0.0035 | 0.007 | -0.0335 ± 0.018 | -0.059 ± 0.038 | 0.0385 ± 0.047 | 0.104 ± 0.042 | 0.13 ± 0.018 | -0.038 ± 0.058 | -0.001 ± 0.042 | 0 ± 0.1 | 0.0125 ± 0.09 | 0.014 ± 0.051 | 0.0265 ± 0.1 | 0.12 ± 0.064 | -0.018 ± 0.11 | -0.0415 ± 0.015 | 0.0705 ± 0.00071
7 | LPS:sTNF-alpha | 0.063 ± 0.034 | 0.09 ± 0.0028 | 0.103 ± 0.011 | 0.0115 ± 0.046 | 0.0395 ± 0.019 | -0.0175 ± 0.044 | -0.002 ± 0.045 | -0.026 ± 0.052 | -0.009 ± 0.0057 | 0 ± 0.0014 | -0.0015 ± 0.013 | -0.0135 ± 0.0078 | -0.0375 ± 0.059 | -0.162 ± 0.0085 | -0.42 ± 0.052 | -0.0515 ± 0.022 | -0.02 ± 0.041 | -0.0325 ± 0.079
8 | BF4T:SRB | -0.008 ± 0.011 | -0.0105 ± 0.0078 | 0.0015 ± 0.019 | -0.005 ± 0.016 | 0.0035 ± 0.026 | -0.0015 ± 0.005 | -0.011 ± 0.0014 | -0.251 ± 0.0085 | -0.0025 ± 0.0035 | -0.002 ± 0.0042 | 0.0145 ± 0.025 | 0.004 ± 0.0071 | -0.0055 ± 0.005 | 0 ± 0.0057 | 0.006 ± 0.016 | -0.005 ± 0.0042 | -0.012 ± 0.0042 | -0.0345 ± 0.005
9 | SAg:CCL2/MCP-1 | -0.0075 ± 0.012 | 0.0005 ± 0.0021 | 0.003 ± 0.016 | -0.01 ± 0.0085 | 0.011 ± 0.058 | -0.028 ± 0.017 | 0.0005 ± 0.025 | 0.041 ± 0.0028 | 0.0135 ± 0.0035 | -0.018 ± 0.0042 | 0.0035 ± 0.029 | 0.0175 ± 0.022 | -0.014 ± 0.016 | 0.043 ± 0.0085 | 0.0825 ± 0.021 | -0.0065 ± 0.00071 | -0.0185 ± 0.0035 | -0.085 ± 0.027
10 | BT:sIL-17F | -0.051 ± 0.15 | -0.012 ± 0.096 | -0.0315 ± 0.079 | -0.027 ± 0.018 | -0.064 ± 0.12 | 0.062 ± 0.054 | 0.0385 ± 0.0035 | 0.0705 ± 0.012 | -0.0145 ± 0.032 | -0.0345 ± 0.079 | 0.035 ± 0.12 | -0.025 ± 0.083 | 0.0315 ± 0.1 | 0.0615 ± 0.19 | 0.025 ± 0.086 | -0.0125 ± 0.11 | 0.054 ± 0.041 | -0.13 ± 0.027
11 | BF4T:uPA | -0.0045 ± 0.011 | -0.0115 ± 0.0064 | 0.012 ± 0.04 | -0.0075 ± 0.0064 | 0.02 ± 0.0028 | -0.028 ± 0.03 | -0.025 ± 0.025 | -0.113 ± 0.046 | 0.007 ± 0.0028 | 0 ± 0.011 | 0.0095 ± 0.0092 | 0.0165 ± 0.0035 | 0.013 ± 0.017 | 0.0415 ± 0.005 | 0.06 ± 0.027 | -0.003 ± 0.0042 | 0.0005 ± 0.0035 | -0.01 ± 0.011
12 | BE3C:CXCL11/I-TAC | -0.0115 ± 0.011 | -0.02 ± 0.011 | -0.009 ± 0.014 | -0.038 ± 0.024 | -0.192 ± 0.025 | -0.012 ± 0.014 | 0.002 ± 0.011 | -0.598 ± 0.059 | 0.005 ± 0.0014 | -0.0005 ± 0.012 | -0.006 ± 0.011 | 0.0095 ± 0.005 | 0.0075 ± 0.0064 | 0.0185 ± 0.005 | -0.0685 ± 0.036 | 0.0015 ± 0.052 | -0.023 ± 0.035 | -0.107 ± 0.067
13 | SAg:CD62E/E-Selectin | -0.008 ± 0.018 | 0.0005 ± 0.0035 | -0.012 ± 0.027 | -0.028 ± 0.0071 | -0.0615 ± 0.032 | -0.0055 ± 0.013 | 0.0155 ± 0.019 | 0.127 ± 0.016 | 0.02 ± 0.05 | -0.0115 ± 0.0035 | -0.0035 ± 0.019 | -0.0105 ± 0.0064 | 0.026 ± 0.0085 | 0.0755 ± 0.04 | 0.138 ± 0.036 | -0.0155 ± 0.012 | -0.05 ± 0.035 | -0.178 ± 0.034
14 | BE3C:HLA-DR | 0 ± 0.0099 | -0.0025 ± 0.011 | 0.006 ± 0.017 | -0.0235 ± 0.042 | -0.0275 ± 0.032 | -0.006 ± 0.025 | -0.041 ± 0.014 | -0.642 ± 0.14 | -0.0105 ± 0.012 | -0.0125 ± 0.011 | -0.01 ± 0.011 | 0.0005 ± 0.013 | -0.02 ± 0.014 | -0.0755 ± 0.032 | -0.406 ± 0.041 | -0.01 ± 0.0042 | -0.032 ± 0.018 | -0.0685 ± 0.018
